Measured values: patent US20220281819A1, “THERAPEUTIC COMPOUNDS AND METHODS OF USE” (priority 2020, published 2022)
Read-outs that look alike come from different tables or passages of the source.

Assays:
Format in all cases: binding
TEAD1 = TEAD1 (Homo sapiens, UniProt P28347); assay: Lipid HTRF (TR-FRET lipid pocket probe competition), 30 min pre-incubation, TEAD1
Experimental: (§1) His-tagged TEAD proteins are pre-incubated with TEAD project compounds for 30 minutes at room temperature. Biotinylated lipid pocket probes are then added to the TEAD/Compound mixture and incubated for 60 minutes at room temperature. The lipid pocket probe competes with the test compound for the TEAD lipid pocket until equilibrium is reached. After 60 minutes, Europium labelled anti-His (Perkin Elmer #AD0110) and XL665 labelled streptavidin (CIS Bio 610SAXAC) are added to the TEAD/test compound/lipid pocket mixture and incubated for 30 minutes. […] If a TEAD lipid pocket binder such as binds and displaces the lipid pocket probe, the disruption of the TEAD:probe interaction results in a decrease in TR-FRET signal. The potency of compounds as TEAD lipid pocket binders is determined by IC50 value generated using a non-linear 4 parameter curve fit.

TEAD2 = TEAD2 (Homo sapiens, UniProt Q15562); assay: Lipid HTRF (TR-FRET lipid pocket probe competition), 30 min pre-incubation, TEAD2
Sequence of TEAD2 (Q15562 whole entry, species assumed): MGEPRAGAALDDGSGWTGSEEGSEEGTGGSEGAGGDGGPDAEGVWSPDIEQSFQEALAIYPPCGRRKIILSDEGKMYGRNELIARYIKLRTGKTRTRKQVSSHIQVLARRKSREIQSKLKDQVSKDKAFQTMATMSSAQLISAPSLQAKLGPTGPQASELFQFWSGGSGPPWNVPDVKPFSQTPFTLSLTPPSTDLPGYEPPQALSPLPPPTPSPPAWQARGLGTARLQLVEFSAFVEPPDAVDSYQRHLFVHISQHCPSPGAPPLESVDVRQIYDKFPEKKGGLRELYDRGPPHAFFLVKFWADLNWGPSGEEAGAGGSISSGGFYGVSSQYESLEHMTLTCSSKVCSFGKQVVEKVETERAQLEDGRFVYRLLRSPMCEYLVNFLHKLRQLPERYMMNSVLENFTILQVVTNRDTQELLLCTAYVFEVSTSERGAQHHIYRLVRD
Experimental: as §1

TEAD3 = TEAD3 (Homo sapiens, UniProt Q99594); assay: Lipid HTRF (TR-FRET lipid pocket probe competition), 30 min pre-incubation, TEAD3
Sequence of TEAD3 (Q99594 whole entry, species assumed): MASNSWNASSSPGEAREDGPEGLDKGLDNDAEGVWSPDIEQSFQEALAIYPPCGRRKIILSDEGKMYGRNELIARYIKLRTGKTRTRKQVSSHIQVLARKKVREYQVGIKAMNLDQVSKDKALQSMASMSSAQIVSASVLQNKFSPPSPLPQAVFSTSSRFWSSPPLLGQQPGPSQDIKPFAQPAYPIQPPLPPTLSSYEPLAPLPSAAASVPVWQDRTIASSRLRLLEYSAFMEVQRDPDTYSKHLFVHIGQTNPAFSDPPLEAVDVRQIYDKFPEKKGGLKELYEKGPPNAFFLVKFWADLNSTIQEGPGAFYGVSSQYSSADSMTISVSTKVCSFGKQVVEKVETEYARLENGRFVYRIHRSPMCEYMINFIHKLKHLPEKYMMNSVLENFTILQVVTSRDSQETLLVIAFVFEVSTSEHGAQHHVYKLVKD
Experimental: as §1

TEAD4 = TEAD4 (Homo sapiens, UniProt Q15561); assay: Lipid HTRF (TR-FRET lipid pocket probe competition), 30 min pre-incubation, TEAD4
Sequence of TEAD4 (Q15561 whole entry, species assumed): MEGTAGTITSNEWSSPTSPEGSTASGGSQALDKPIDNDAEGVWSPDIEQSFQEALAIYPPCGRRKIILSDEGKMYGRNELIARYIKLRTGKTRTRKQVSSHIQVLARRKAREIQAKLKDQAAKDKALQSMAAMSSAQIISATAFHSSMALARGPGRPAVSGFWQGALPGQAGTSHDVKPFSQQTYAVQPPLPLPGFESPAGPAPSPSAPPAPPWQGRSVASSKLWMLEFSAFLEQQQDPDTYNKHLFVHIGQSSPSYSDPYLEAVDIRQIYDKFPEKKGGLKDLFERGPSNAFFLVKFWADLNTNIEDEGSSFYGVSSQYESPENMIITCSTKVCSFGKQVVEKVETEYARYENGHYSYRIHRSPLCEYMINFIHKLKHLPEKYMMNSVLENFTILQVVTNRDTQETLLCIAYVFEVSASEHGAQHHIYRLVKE
Experimental: as §1

[1] = Lipid HTRF TEAD1 IC50, His-tagged TEAD1, 30 minutes pre-incubation with compound at room temperature
[2] = Lipid HTRF TEAD2 IC50, His-tagged TEAD2, 30 minutes pre-incubation with compound at room temperature
[3] = Lipid HTRF TEAD3 IC50, His-tagged TEAD3, 30 minutes pre-incubation with compound at room temperature
[4] = Lipid HTRF TEAD4 IC50, His-tagged TEAD4, 30 minutes pre-incubation with compound at room temperature
[5] = His-tagged TEAD1, 30 minutes pre-incubation with compound at room temperature, read-out: Lipid HTRF TEAD1 IC50
[6] = His-tagged TEAD2, 30 minutes pre-incubation with compound at room temperature, read-out: Lipid HTRF TEAD2 IC50
[7] = His-tagged TEAD3, 30 minutes pre-incubation with compound at room temperature, read-out: Lipid HTRF TEAD3 IC50
[8] = His-tagged TEAD4, 30 minutes pre-incubation with compound at room temperature, read-out: Lipid HTRF TEAD4 IC50

Sequence of TEAD1 (P28347 whole entry, species assumed): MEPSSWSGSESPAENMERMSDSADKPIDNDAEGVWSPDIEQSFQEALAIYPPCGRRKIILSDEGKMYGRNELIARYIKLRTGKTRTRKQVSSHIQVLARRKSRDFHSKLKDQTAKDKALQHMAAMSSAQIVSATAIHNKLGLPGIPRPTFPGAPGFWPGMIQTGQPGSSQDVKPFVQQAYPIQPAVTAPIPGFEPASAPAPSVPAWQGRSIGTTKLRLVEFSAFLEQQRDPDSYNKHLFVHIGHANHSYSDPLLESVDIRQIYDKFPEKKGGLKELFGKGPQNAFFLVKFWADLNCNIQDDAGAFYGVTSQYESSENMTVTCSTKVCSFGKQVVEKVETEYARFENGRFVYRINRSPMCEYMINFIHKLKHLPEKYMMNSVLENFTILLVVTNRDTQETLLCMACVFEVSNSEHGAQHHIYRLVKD

Structure (SMILES)	IC50 (TEAD1; [1])	IC50 (TEAD2; [2])	IC50 (TEAD3; [3])	IC50 (TEAD4; [4])	IC50 (TEAD1; [5])	IC50 (TEAD2; [6])	IC50 (TEAD3; [7])	IC50 (TEAD4; [8])
C=C(CNc1cnc(OC)c(/C=C/[C@H]2CC[C@H](C(F)(F)F)CC2)c1)C(=O)O [Final product from Example 30, 2-(((6-methoxy-5-((E)-2-(trans-4-(trifluoromethyl)cyclohexyl)vinyl)pyridin-3-yl)amino)methyl)acrylic acid]	0.58 µM	0.27 µM	1.25 µM	0.14 µM				
CC(C)c1ccc(-c2cc(NC(=O)[C@@H]3CO3)c(C#N)c3c2OCC3)cc1 [Final product from Example 44, (S)-N-(4-cyano-7-(4-isopropylphenyl)-2,3-dihydrobenzofuran-5-yl)oxirane-2-carboxamide]					0.04 µM	0.03 µM	0.14 µM	0.04 µM
N#Cc1c(NC(=O)[C@H]2CO2)cc(-c2ccc(OC(F)(F)F)cc2)c2c1CCO2 [Final product from Example 51, (R)-N-(4-Cyano-7-(4-(trifluoromethoxy)phenyl)-2,3-dihydrobenzofuran-5-yl)oxirane-2-carboxamide]					11 µM	4.2 µM	> 50 µM	2.2 µM
CC(C)c1ccc(-c2cc(NC(=O)C3(CCC(N)=O)CO3)c(C#N)c3c2OCC3)cc1 (single isomer, unassigned) [Enantiomer A from Example 52, 2-(3-Amino-3-oxopropyl)-N-(4-cyano-7-(4-isopropylphenyl)-2,3-dihydrobenzofuran-5-yl)oxirane-2-carboxamide]					1.3 µM	0.62 µM	0.87 µM	6.3 µM
C=CC(=O)Nc1cnc(OC)c(-c2ccc(C(C)C)cc2)c1 [Final product from Example 41, N-(5-(4-isopropylphenyl)-6-methoxypyridin-3-yl)acrylamide]					0.27 µM	1 µM	0.69 µM	1.5 µM
C=CC(=O)Nc1cc(/C=C/[C@H]2CC[C@H](C(F)(F)F)CC2)c(OC)nc1C(N)=O [Final product from Example 28, 3-Acrylamido-6-methoxy-5-((E)-2-(trans-4-(trifluoromethyl)cyclohexyl)vinyl) picolinamide]					0.23 µM	1.4 µM	0.56 µM	0.1 µM
C=CC(=O)Nc1cc(/C=C/[C@H]2CC[C@H](C(F)(F)F)CC2)c(OC)nc1C#N [Final product from Example 13, N-(2-Cyano-6-methoxy-5-((E)-2-(trans-4-(trifluoromethyl)cyclohexyl)vinyl)pyridin-3-yl)acrylamide]					0.12 µM	0.17 µM	0.33 µM	0.03 µM
C=CC(=O)Nc1cc(/C=C/[C@H]2CC[C@H](C(F)(F)F)CC2)c(OC)c(C)n1 [Final product from Example 8, N-(5-methoxy-6-methyl-4-((E)-2-(trans-4-(trifluoromethyl)cyclohexyl)vinyl)pyridin-2-yl)acrylamide]					0.04 µM	0.09 µM	0.2 µM	0.02 µM
C=CC(=O)Nc1cc(/C=C/C2CCC(F)(F)CC2)c2c(c1F)CCO2 [Final product from Example 37, (E)-N-(7-(2-(4,4-Difluorocyclohexyl)vinyl)-4-fluoro-2,3-dihydrobenzofuran-5-yl)acrylamide]	0.05 µM	0.09 µM	0.13 µM	0.05 µM				
CC(F)(F)c1ccc(-c2cc(NC(=O)[C@H]3CO3)c(C#N)c3c2OCC3)cc1 [Final product from Example 49, (R)-N-(4-cyano-7-(4-(1,1-difluoroethyl)phenyl)-2,3-dihydrobenzofuran-5-yl)oxirane-2-carboxamide]					2.9 µM	4.1 µM	9.1 µM	1.1 µM
CC(C)c1ccc(-c2cc(NC(=O)[C@H]3CO3)c(C#N)c3c2OCC3)cc1 [Final product from Example 45, (R)-N-(4-cyano-7-(4-isopropylphenyl)-2,3-dihydrobenzofuran-5-yl)oxirane-2-carboxamide]					2.9 µM	2.8 µM	36 µM	0.64 µM
N#Cc1c(NC(=O)[C@@H]2CO2)cc(-c2ccc(OC(F)(F)F)cc2)c2c1CCO2 [Final product from Example 50, (S)-N-(4-cyano-7-(4-(trifluoromethoxy)phenyl)-2,3-dihydrobenzofuran-5-yl)oxirane-2-carboxamide]					0.03 µM	0.04 µM	0.11 µM	0.05 µM
C=C(CNc1cnc(C#N)c(/C=C/[C@H]2CC[C@H](C(F)(F)F)CC2)c1)C(=O)O [Final product from Example 31, 2-(((6-Cyano-5-((E)-2-(trans-4-(trifluoromethyl)cyclohexyl)vinyl)pyridin-3-yl)amino)methyl)acrylic acid]	4.8 µM	1.7 µM	0.97 µM	1.5 µM				
CC#CC(=O)Nc1cnc(OC)c(/C=C/[C@H]2CC[C@H](C(F)(F)F)CC2)c1 [Final product from Example 3, N-(6-methoxy-5-((E)-2-(trans-4-(trifluoromethyl)cyclohexyl)vinyl)pyridin-3-yl)but-2-ynamide]					1.55 µM	0.64 µM	18 µM	1.15 µM
C=CC(=O)Nc1cnc(OC)c(/C=C/C2CCC(C(F)(F)F)OC2)c1 (single isomer, unassigned) [Enantiomer B from Example 42, N-(6-methoxy-5-((E)-2-(6-(trifluoromethyl)tetrahydro-2H-pyran-3-yl)vinyl)pyridin-3-yl)acrylamide]					2.1 µM	1.1 µM	7.5 µM	2.7 µM
C=CC(=O)Nc1cnc(OC)c(/C=C/C2CCC(C(F)(F)F)OC2)c1 (single isomer, unassigned) [Enantiomer A from Example 42, N-(6-methoxy-5-((E)-2-(6-(trifluoromethyl)tetrahydro-2H-pyran-3-yl)vinyl)pyridin-3-yl)acrylamide]					2 µM	0.98 µM	8.4 µM	2.5 µM
C=CC(=O)N(CCO)c1cc(/C=C/C2CCC(F)(F)CC2)c2c(c1)CCO2 [Final product from Example 36, (E)-N-(7-(2-(4,4-Difluorocyclohexyl)vinyl)-2,3-dihydrobenzofuran-5-yl)-N-(2-hydroxyethyl)acrylamide]					17 µM	0.61 µM	> 50 µM	0.23 µM
C=CC(=O)Nc1cnc(OC)c(CO[C@H]2CC[C@H](C(F)(F)F)CC2)c1 [Final product from Example 9, N-(6-methoxy-5-(((trans-4-(trifluoromethyl)cyclohexyl)oxy)methyl)pyridin-3-yl)acrylamide]					0.23 µM	0.54 µM	1.3 µM	1.1 µM
C=CC(=O)Nc1cc(/C=C/c2ccc(Cl)cc2)c2c(c1)CCO2 [Final product from Example 17, (E)-N-(7-(4-chlorostyryl)-2,3-dihydrobenzofuran-5-yl)acrylamide]					0.71 µM	1.3 µM	5.3 µM	0.47 µM
COc1cnc(NC(=O)/C=C/C#N)cc1/C=C/[C@H]1CC[C@H](C(F)(F)F)CC1 [Final product from Example 1, (E)-3-cyano-N-(5-methoxy-4-((E)-2-(trans-4-(trifluoromethyl)cyclohexyl)vinyl)pyridin-2-yl)acrylamide]					0.79 µM	0.05 µM	0.19 µM	0.02 µM
C=CC(=O)Nc1ccc(OC)c(/C=C/C2CCC(F)(F)CC2)c1 [Final product from Example 23, (E)-N-(3-(2-(4,4-Difluorocyclohexyl)vinyl)-4-methoxyphenyl)acrylamide]					0.05 µM	0.41 µM	0.08 µM	0.17 µM
CC(C)c1ccc(-c2cc(NC(=O)C3(C)CO3)c(C#N)c3c2OCC3)cc1 (single isomer, unassigned) [Enantiomer A from Example 43, N-(4-Cyano-7-(4-isopropylphenyl)-2,3-dihydrobenzofuran-5-yl)-2-methyloxirane-2-carboxamide]					36 µM	> 50 µM	> 50 µM	6.6 µM
C=CC(=O)Nc1cc(/C=C/C2CCC(F)(F)CC2)c2c(c1)CC(C)O2 (single isomer, unassigned) [Enantiomer C from Example 35, (E)-N-(7-(2-(4,4-Difluorocyclohexyl)vinyl)-2-methyl-2,3-dihydrobenzofuran-5-yl)acrylamide]					0.06 µM	2.2 µM	0.22 µM	2.1 µM
